Results published in US11702422B2, “Imidazopyridazines as modulators of IL-17” (Janssen Pharmaceutica NV, priority 2020, dated 2023).

How the values were obtained:
[1] = target: IL-17A(FLAG-Tagged): IL-17RA(His-Tagged) (Homo sapiens, UniProt Q16552, K93Q); assay: IL-17A(FLAG-Tagged): IL-17RA(His-Tagged) Binding Disruption Eu-HTRF Assay; details: IL-17A/IL-17RA binding disruption, simple average if tested more than once
Summary of the method: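 IC50 comes from a one-site competition fit of the HTRF 665/620 nm ratio. Compound dilutions (2-fold, 22 points) were held 1 h rt with FLAG-tagged IL-17A dimer, then His-tagged IL-17RA plus Eu-cryptate anti-FLAG and D2 anti-His antibodies were added for 2 h rt.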

[2] = system: IL-17A-induced G-CSF production in human normal keratinocyte (NHK); assay: NHK Assay: IL-17A-induced G-CSF production in human normal keratinocytes; assay type: cell-based; details: Homo sapiens, Keratinocyte, 24 h, adult normal human keratinocytes, IL-17A 5 ng/mL, simple average if tested more than once
Summary of the method: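 IL-17A (5 ng/mL final) was pre-incubated 1 h at rt with titrated compound and then added to adult normal human keratinocytes (5% FBS, 0.2% DMSO) for 24 h at 37° C. Supernatant G-CSF was measured by HTRF against a standard curve to derive IC50. Viability was checked by CellTiter-Glo.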

Sequence of UniProt Q16552 (Q16552 with tags, fused parts or gaps K93Q): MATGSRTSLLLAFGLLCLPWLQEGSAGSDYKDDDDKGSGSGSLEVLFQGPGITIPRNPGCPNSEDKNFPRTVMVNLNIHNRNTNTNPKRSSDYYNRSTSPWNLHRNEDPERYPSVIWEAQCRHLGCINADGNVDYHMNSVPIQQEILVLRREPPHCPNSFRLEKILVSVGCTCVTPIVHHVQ

SMILES | IC50 [1] [nM] | IC50 [2] [nM]
O=C(CCC(F)(F)F)N[C@@H](c1cnn2cc([C@@H](NC(=O)c3conc3CC3CC3)C3CCC(F)(F)CC3)nc2c1)C1CC1 [Example 236, N—((S)-(7-((R)-Cyclopropyl(4,4,4-trifluorobutanamido)methyl)imidazo[1,2-b]pyridazin-2-yl)(4,4-difluorocyclohexyl)methyl)-3-(cyclopropylmethyl)isoxazole-4-carboxamide] | 46 | 360
O=C(CCC(F)(F)F)N[C@@H](c1cnn2cc([C@@H](NC(=O)c3conc3COC(F)F)C3CCC(F)(F)CC3)nc2c1)C1CC1 [Example 237, N—((S)-(7-((R)-Cyclopropyl(4,4,4-trifluorobutanamido)methyl)imidazo[1,2-b]pyridazin-2-yl)(4,4-difluorocyclohexyl)methyl)-3-((difluoromethoxy)methyl)isoxazole-4-carboxamide] | 52 | 88
CCOc1nocc1C(=O)N[C@H](c1cn2ncc([C@H](NC(=O)CCC(F)(F)F)C3CC3)cc2n1)C1CCC(F)(F)CC1 [Example 238, N—((S)-(7-((R)-Cyclopropyl(4,4,4-trifluorobutanamido)methyl)imidazo[1,2-b]pyridazin-2-yl)(4,4-difluorocyclohexyl)methyl)-3-ethoxyisoxazole-4-carboxamide] | 190 | 830
COc1nocc1C(=O)N[C@H](c1cn2ncc([C@H](NC(=O)CCC(F)(F)F)C3CC3)cc2n1)C1CCC(F)(F)CC1 [Example 239, N—((S)-(7-((R)-Cyclopropyl(4,4,4-trifluorobutanamido)methyl)imidazo[1,2-b]pyridazin-2-yl)(4,4-difluorocyclohexyl)methyl)-3-methoxyisoxazole-4-carboxamide] | 430 | 1300
O=C(CCC(F)(F)F)N[C@@H](c1cnn2cc([C@@H](NC(=O)c3ccnn3C3CC3)C3CCC(F)(F)CC3)nc2c1)C1CC1 [Example 240, 1-Cyclopropyl-N—((S)-(7-((R)-cyclopropyl(4,4,4-trifluorobutanamido)methyl)imidazo[1,2-b]pyridazin-2-yl)(4,4-difluorocyclohexyl)methyl)-1H-pyrazole-5-carboxamide] | 130 | 210
CC(C)n1nccc1C(=O)N[C@H](c1cn2ncc([C@H](NC(=O)CC3(C(F)(F)F)CC3)C3CC3)cc2n1)C1CCC(F)(F)CC1 [Example 244, N—((S)-(7-((R)-Cyclopropyl(2-(1-(trifluoromethyl)cyclopropyl)acetamido)methyl)imidazo[1,2-b]pyridazin-2-yl)(4,4-difluorocyclohexyl)methyl)-1-isopropyl-1H-pyrazole-5-carboxamide] | 140 | 120
Cc1nonc1C(=O)N[C@H](c1cn2ncc([C@H](NC(=O)CC3(C(F)(F)F)CC3)C3CC3)cc2n1)C1CCC(F)(F)CC1 [Example 245, N—((S)-(7-((R)-Cyclopropyl(2-(1-(trifluoromethyl)cyclopropyl)acetamido)methyl)imidazo[1,2-b]pyridazin-2-yl)(4,4-difluorocyclohexyl)methyl)-4-methyl-1,2,5-oxadiazole-3-carboxamide] | 140 | 290
CC(C)n1nccc1C(=O)N[C@H](c1cn2ncc([C@H](NC(=O)CC3CCC3)C3CC3)cc2n1)C1CCC(F)(F)CC1 [Example 246, N—((S)-(7-((R)-(2-Cyclobutylacetamido)(cyclopropyl)methyl)imidazo[1,2-b]pyridazin-2-yl)(4,4-difluorocyclohexyl)methyl)-1-isopropyl-1H-pyrazole-5-carboxamide] | 90 | 41
Cc1nonc1C(=O)N[C@H](c1cn2ncc([C@H](NC(=O)CC3CCC3)C3CC3)cc2n1)C1CCC(F)(F)CC1 [Example 247, N—((S)-(7-((R)-(2-Cyclobutylacetamido)(cyclopropyl)methyl)imidazo[1,2-b]pyridazin-2-yl)(4,4-difluorocyclohexyl)methyl)-4-methyl-1,2,5-oxadiazole-3-carboxamide] | 62 | 190
CC(C)n1nccc1C(=O)N[C@H](c1cn2ncc([C@H](NC(=O)CC34CC(C3)C4)C3CC3)cc2n1)C1CCC(F)(F)CC1 [Example 248, N—((S)-(7-((R)-(2-(Cicyclo[1.1.1]pentan-1-yl)acetamido)(cyclopropyl)methyl)imidazo[1,2-b]pyridazin-2-yl)(4,4-difluorocyclohexyl)methyl)-1-isopropyl-1H-pyrazole-5-carboxamide] | 49 | 37
Cc1nonc1C(=O)N[C@H](c1cn2ncc([C@H](NC(=O)CC34CC(C3)C4)C3CC3)cc2n1)C1CCC(F)(F)CC1 [Example 249, N—((S)-(7-((R)-(2-(Bicyclo[1.1.1]pentan-1-yl)acetamido)(cyclopropyl)methyl)imidazo[1,2-b]pyridazin-2-yl)(4,4-difluorocyclohexyl)methyl)-4-methyl-1,2,5-oxadiazole-3-carboxamide] | 24 | 98
Cc1nonc1C(=O)N[C@H](c1cn2ncc([C@H](NC(=O)CCC(F)F)C3CC3)cc2n1)C1CCC(F)(F)CC1 [Example 250, N—((S)-(7-((R)-Cyclopropyl(4,4-difluorobutanamido)methyl)imidazo[1,2-b]pyridazin-2-yl)(4,4-difluorocyclohexyl)methyl)-4-methyl-1,2,5-oxadiazole-3-carboxamide] | 98 | 390
CC(C)n1nccc1C(=O)N[C@H](c1cn2ncc([C@H](NC(=O)CCCF)C3CC3)cc2n1)C1CCC(F)(F)CC1 [Example 251, N—((S)-(7-((R)-Cyclopropyl(4-fluorobutanamido)methyl)imidazo[1,2-b]pyridazin-2-yl)(4,4-difluorocyclohexyl)methyl)-1-isopropyl-1H-pyrazole-5-carboxamide] | 200 | 770
Cc1nonc1C(=O)N[C@H](c1cn2ncc([C@H](NC(=O)CCCF)C3CC3)cc2n1)C1CCC(F)(F)CC1 [Example 252, N—((S)-(7-((R)-Cyclopropyl(4-fluorobutanamido)methyl)imidazo[1,2-b]pyridazin-2-yl)(4,4-difluorocyclohexyl)methyl)-4-methyl-1,2,5-oxadiazole-3-carboxamide] | 640 | 7700
Cc1nonc1C(=O)N[C@H](c1cn2ncc([C@H](NC(=O)CC(C)(C)C(F)(F)F)C3CC3)cc2n1)C1CCC(F)(F)CC1 [Example 253, N—((S)-(7-((R)-Cyclopropyl(4,4,4-trifluoro-3,3-dimethylbutanamido)methyl)imidazo[1,2-b]pyridazin-2-yl)(4,4-difluorocyclohexyl)methyl)-4-methyl-1,2,5-oxadiazole-3-carboxamide] | 220 | 760
CC(C)n1nccc1C(=O)N[C@H](c1cn2ncc([C@H](NC(=O)CC(C)(C)C(F)(F)F)C3CC3)cc2n1)C1CCC(F)(F)CC1 [Example 254, N—((S)-(7-((R)-Cyclopropyl(4,4,4-trifluoro-3,3-dimethylbutanamido)methyl)imidazo[1,2-b]pyridazin-2-yl)(4,4-difluorocyclohexyl)methyl)-1-isopropyl-1H-pyrazole-5-carboxamide] | 290 | 200
Cc1nonc1C(=O)N[C@H](c1cn2ncc([C@H](NC(=O)CCC(C)(F)F)C3CC3)cc2n1)C1CCC(F)(F)CC1 [Example 259, N—((S)-(7-((R)-Cyclopropyl(4,4-difluoropentanamido)methyl)imidazo[1,2-b]pyridazin-2-yl)(4,4-difluorocyclohexyl)methyl)-4-methyl-1,2,5-oxadiazole-3-carboxamide] | 120 | 620
CC(C)n1nccc1C(=O)N[C@H](c1cn2ncc([C@H](NC(=O)CCC(C)(F)F)C3CC3)cc2n1)C1CCC(F)(F)CC1 [Example 260, N—((S)-(7-((R)-Cyclopropyl(4,4-difluoropentanamido)methyl)imidazo[1,2-b]pyridazin-2-yl)(4,4-difluorocyclohexyl)methyl)-1-isopropyl-1H-pyrazole-5-carboxamide] | 120 | 180
CC(C)n1nccc1C(=O)N[C@H](c1cn2ncc([C@H](NC(=O)CC(C)(F)F)C3CC3)cc2n1)C1CCC(F)(F)CC1 [Example 261, N—((S)-(7-((R)-Cyclopropyl(3,3-difluorobutanamido)methyl)imidazo[1,2-b]pyridazin-2-yl)(4,4-difluorocyclohexyl)methyl)-1-isopropyl-1H-pyrazole-5-carboxamide] | 130 | 430
CC(CC(=O)N[C@@H](c1cnn2cc([C@@H](NC(=O)c3ccnn3C(C)C)C3CCC(F)(F)CC3)nc2c1)C1CC1)C(F)F (stereo partly drawn) [Example 262, N-((1S)-(7-((1R)-Cyclopropyl(4,4-difluoro-3-methylbutanamido)methyl)imidazo[1,2-b]pyridazin-2-yl)(4,4-difluorocyclohexyl)methyl)-1-isopropyl-1H-pyrazole-5-carboxamide] | 120 | 120
Cc1nonc1C(=O)N[C@H](c1cn2ncc([C@H](NC(=O)CC(C)(F)F)C3CC3)cc2n1)C1CCC(F)(F)CC1 [Example 263, N—((S)-(7-((R)-Cyclopropyl(3,3-difluorobutanamido)methyl)imidazo[1,2-b]pyridazin-2-yl)(4,4-difluorocyclohexyl)methyl)-4-methyl-1,2,5-oxadiazole-3-carboxamide] | 210 | 1800
